Experiments:
Cytochrome P450 2C19 = Cytochrome P450 2C19 (Homo sapiens, UniProt P33261); assay: (§1) Inhibition of Cytochrome P450 Oxidase: The human liver microsomes (0.253 mg/mL protein) containing cytochrome P450, test compounds (0.05-50 μM), CYPs substrates (10 μM […], 5 μM diclofenac, 30 μM mephenytoin, 5 μM dextromethorphan hydrobromide, 2 μM midazolam), 1.0 mM NADP were incubated at 37° C. for 10 minutes. Naflavone, sulfafenpyrazole, N-3-benzylnivan, quinidine, and ketoconazole were used as reference inhibitors.
Cytochrome P450 2C9 = Cytochrome P450 2C9 (Homo sapiens, UniProt P11712); assay: as §1
Cytochrome P450 3A4 = Cytochrome P450 3A4 (Homo sapiens, UniProt P08684); assay: as §1
Cytochrome P450 2D6 = Cytochrome P450 2D6 (Homo sapiens, UniProt P10635); assay: as §1
Cytochrome P450 1A2 = molecular target: T1, Cytochrome P450 1A2 (Homo sapiens, UniProt P05177); assay: as §1
T1 sequence (P05177 whole entry): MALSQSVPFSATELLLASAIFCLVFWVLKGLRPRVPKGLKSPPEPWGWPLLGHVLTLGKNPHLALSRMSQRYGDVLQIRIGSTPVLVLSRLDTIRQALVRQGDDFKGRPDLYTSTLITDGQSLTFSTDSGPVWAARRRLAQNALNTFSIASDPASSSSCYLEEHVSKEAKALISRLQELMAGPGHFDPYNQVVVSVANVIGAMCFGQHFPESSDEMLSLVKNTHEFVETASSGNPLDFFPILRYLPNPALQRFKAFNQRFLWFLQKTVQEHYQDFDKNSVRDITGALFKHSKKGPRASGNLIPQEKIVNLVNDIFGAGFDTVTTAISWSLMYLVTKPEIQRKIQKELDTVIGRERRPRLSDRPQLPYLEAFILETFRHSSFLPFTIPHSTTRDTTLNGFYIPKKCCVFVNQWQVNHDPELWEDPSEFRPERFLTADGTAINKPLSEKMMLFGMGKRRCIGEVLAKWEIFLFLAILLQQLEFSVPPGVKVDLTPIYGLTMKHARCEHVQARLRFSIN

[1] = molecular target: Kappa-type opioid receptor (Homo sapiens, UniProt P41145); assay: Agonistic activity of the kappa-opioid receptors: Forskolin can stimulate the release of cAMP from HEK293 cells with high expression of human κ (or μ, or δ)-opioid receptors. […] The efficacy of the compounds of the invention as κ-opioid receptor agonists was determined by measuring the ability of the compounds of Examples to inhibit adenylate cyclase activity.Cell culture: The HEK293 cell line highly expressing human κ (or μ, or δ)-opioid receptor were cultured in DMEM medium containing 10% FBS.Stimulation: the test compound was 4-fold diluted in a gradient manner to obtain 10 concentrations, and 50 nl of each was transferred to a 384-well plate, and then 10 nl Forskolin was added; the cells were digested, re-suspended, and counted; and then 10 μl of cell suspension (5×10^5 cell/mL) was added, and the cells were mixed gently, and incubated at 23° C. for 60 minutes.Detection: cAMP Assay Kit (Cisbio) was used, cAMPD2 and Anti-cAMP conjugate were added, and the resultant mixture was incubated for 1 h at room temperature. The plate was read using envision (Perkin Elmer) and EC50 was obtained by means of fitting with a four-parameter equation.; format: cell-based
Kappa-type opioid receptor, sequence (P41145 whole entry): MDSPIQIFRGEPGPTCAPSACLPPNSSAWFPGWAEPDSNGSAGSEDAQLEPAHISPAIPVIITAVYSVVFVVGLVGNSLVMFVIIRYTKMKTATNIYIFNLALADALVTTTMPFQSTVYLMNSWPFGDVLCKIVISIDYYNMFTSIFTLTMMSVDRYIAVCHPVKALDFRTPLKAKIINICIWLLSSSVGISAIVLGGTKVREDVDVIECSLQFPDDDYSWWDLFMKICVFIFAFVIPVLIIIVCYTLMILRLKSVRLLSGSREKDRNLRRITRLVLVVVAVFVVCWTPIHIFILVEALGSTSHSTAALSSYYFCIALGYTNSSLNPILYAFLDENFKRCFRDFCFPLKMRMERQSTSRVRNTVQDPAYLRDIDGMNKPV

Cytochrome P450 2C9, sequence (P11712 whole entry): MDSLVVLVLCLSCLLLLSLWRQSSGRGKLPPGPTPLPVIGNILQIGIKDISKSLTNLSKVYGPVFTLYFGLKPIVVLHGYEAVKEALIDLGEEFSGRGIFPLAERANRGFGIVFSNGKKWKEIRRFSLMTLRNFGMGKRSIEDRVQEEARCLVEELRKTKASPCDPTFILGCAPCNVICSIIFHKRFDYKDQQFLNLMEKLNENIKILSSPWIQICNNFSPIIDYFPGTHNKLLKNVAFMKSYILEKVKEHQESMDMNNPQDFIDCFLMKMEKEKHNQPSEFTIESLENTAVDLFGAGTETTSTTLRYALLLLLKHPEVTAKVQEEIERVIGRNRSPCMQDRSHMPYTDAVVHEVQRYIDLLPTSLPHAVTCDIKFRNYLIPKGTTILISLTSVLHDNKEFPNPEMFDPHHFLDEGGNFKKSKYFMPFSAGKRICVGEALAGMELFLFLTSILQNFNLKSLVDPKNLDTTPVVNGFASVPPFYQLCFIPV
Cytochrome P450 2D6, sequence (P10635 whole entry): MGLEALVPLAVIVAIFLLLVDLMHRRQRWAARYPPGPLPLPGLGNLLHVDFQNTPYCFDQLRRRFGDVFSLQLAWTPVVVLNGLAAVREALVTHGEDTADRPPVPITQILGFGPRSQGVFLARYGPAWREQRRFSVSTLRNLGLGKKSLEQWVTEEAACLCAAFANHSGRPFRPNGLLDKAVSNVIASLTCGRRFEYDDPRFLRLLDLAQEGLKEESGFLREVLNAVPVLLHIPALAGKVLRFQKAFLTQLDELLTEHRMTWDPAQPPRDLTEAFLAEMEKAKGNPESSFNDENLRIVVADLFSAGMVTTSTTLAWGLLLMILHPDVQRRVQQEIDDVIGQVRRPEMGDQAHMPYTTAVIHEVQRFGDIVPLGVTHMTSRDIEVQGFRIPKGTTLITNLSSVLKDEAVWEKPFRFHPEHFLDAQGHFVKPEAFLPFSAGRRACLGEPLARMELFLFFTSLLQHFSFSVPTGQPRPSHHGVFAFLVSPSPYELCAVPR
Cytochrome P450 3A4, sequence (P08684 whole entry): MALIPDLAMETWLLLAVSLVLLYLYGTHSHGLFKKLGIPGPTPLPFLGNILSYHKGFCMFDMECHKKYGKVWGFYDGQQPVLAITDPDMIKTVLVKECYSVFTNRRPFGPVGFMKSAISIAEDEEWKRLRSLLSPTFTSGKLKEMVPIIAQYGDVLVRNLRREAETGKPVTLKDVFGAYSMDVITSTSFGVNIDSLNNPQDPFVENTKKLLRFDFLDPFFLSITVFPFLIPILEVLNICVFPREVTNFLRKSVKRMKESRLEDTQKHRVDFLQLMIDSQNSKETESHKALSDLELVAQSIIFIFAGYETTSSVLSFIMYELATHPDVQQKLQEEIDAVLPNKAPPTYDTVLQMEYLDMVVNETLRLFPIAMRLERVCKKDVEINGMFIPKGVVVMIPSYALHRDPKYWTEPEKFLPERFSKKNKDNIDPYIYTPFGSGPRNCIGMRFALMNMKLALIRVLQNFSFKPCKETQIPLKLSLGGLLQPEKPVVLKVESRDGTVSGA
Cytochrome P450 2C19, sequence (P33261 whole entry): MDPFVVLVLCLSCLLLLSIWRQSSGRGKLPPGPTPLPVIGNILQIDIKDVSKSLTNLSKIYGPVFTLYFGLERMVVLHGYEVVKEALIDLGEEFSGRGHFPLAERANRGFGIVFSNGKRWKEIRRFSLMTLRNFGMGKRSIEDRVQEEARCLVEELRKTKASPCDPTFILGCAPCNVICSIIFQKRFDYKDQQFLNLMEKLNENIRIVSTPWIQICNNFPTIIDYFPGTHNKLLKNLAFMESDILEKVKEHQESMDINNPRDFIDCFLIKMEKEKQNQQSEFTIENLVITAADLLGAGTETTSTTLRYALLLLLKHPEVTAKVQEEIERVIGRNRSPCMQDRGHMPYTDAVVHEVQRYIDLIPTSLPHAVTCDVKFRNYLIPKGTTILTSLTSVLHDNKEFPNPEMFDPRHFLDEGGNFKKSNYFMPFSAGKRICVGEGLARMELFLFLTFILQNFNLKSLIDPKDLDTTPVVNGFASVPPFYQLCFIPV

SMILES | IC50 (Cytochrome P450 2C19) [µM] | IC50 (Cytochrome P450 2C9) [µM] | IC50 (Cytochrome P450 3A4) [µM] | IC50 (Cytochrome P450 2D6) [µM] | IC50 (Cytochrome P450 1A2) [µM] | EC50 [1] [pM]
CC(C)C[C@@H](NC(=O)[C@@H](Cc1ccccc1)NC(=O)[C@H](N)Cc1ccccc1)C(=O)N[C@H](CCCCN)C(=O)N1CC[C@@H](B(O)O)C1 | > 50 | > 50 | > 50 | > 50 | > 50 | –
CC(C)C[C@@H](NC(=O)[C@@H](Cc1ccccc1)NC(=O)[C@H](N)Cc1ccccc1)C(=O)N[C@H](CCCCN)C(=O)N1CC=C(B(O)O)C1 | > 50 | > 50 | > 50 | > 50 | > 50 | –
CC(C)C[C@@H](NC(=O)[C@@H](Cc1ccccc1)NC(=O)[C@H](N)Cc1ccccc1)C(=O)N[C@H](CCCCN)C(=O)N1CCC(N)(B(O)O)CC1 | > 50 | > 50 | > 50 | > 50 | > 50 | –
CC(C)C[C@@H](NC(=O)[C@@H](Cc1ccccc1)NC(=O)[C@H](N)Cc1ccccc1)C(=O)N[C@H](CCCCN)C(=O)N1CCC[C@H]1B(O)O | > 50 | > 50 | > 50 | > 50 | > 50 | 1
